Data from ChEMBL document CHEMBL1159245, “Antineoplastic agents, 326. The stereochemistry of bastadins 8, 10, and 12 from the Bismarck archipelago marine sponge Ianthella basta” (J Nat Prod, 1995).
Values after ≈ are worked out from the molar mass of the structure shown. Active and inactive are the calls of the source. The rule behind the calls is not given here.

How the values were obtained:
A498 = test: Growth inhibition of human A498 cells; type: functional; settings: read-out: ED50 (the source's name)
Cryptococcus neoformans = test: Antifungal activity against Cryptococcus neoformans ATCC 90112 at […] after 42 hrs; type: functional, organism-based
OVCAR-3 = test: Growth inhibition of human OVCAR-3 cells; type: functional; settings: read-out: ED50 (the source's name)
NCI-H460 = test: Growth inhibition of human NCI-H460 cells; type: functional; settings: read-out: ED50 (the source's name)
KM-20L2 = test: Growth inhibition of human KM20L2 cells; type: functional; settings: read-out: ED50 (the source's name)
Candida albicans = test: Antifungal activity against Candida albicans ATCC 90028 at […] after 42 hrs; type: functional, organism-based
Staphylococcus aureus = test: Antibacterial activity against Staphylococcus aureus ATCC 29213 assessed per 6 mm disk after 16 hrs; type: functional
[1] = Growth inhibition of human SF295 cells; type: cell-based, SF-295; settings: read-out: ED50 (the source's name)
Enterococcus faecalis = test: Antibacterial activity against Enterococcus faecalis ATCC 29212 assessed per 6 mm disk after 16 hrs; type: functional
Neisseria gonorrhoeae = test: Antibacterial activity against Neisseria gonorrhoeae ATCC 49226 at […] after 16 hrs; type: functional, organism-based
Escherichia coli = test: Antibacterial activity against Escherichia coli ATCC 25922 at […] after 16 hrs; type: functional, organism-based
SK-MEL-5 = test: Growth inhibition of human SK-MEL-5 cells; type: functional; settings: read-out: ED50 (the source's name)
P388 = test: Growth inhibition of mouse P388 cells; type: functional; settings: read-out: ED50 (the source's name)
Bacillus subtilis = test: Antibacterial activity against Bacillus subtilis; type: functional

| EC50 (OVCAR-3) | EC50 (NCI-H460) | MIC (Staphylococcus aureus) | MIC (Enterococcus faecalis) | EC50 (SK-MEL-5) | EC50 (P388) | MIC (Bacillus subtilis) | Compound | EC50 (A498) | Activity (Cryptococcus neoformans) | EC50 (KM-20L2) | Activity (Candida albicans) | GI50 [1] | Activity (Neisseria gonorrhoeae) | Activity (Escherichia coli) |
| --- | --- | --- | --- | --- | --- | --- | --- | --- | --- | --- | --- | --- | --- | --- |
| > 10 µg/mL | > 10 µg/mL | 0.195 µg | <50 µg | 9.9 µg/mL (≈ 9.56 µM) | 22.6 µg/mL (≈ 21.8 µM) | – | O=C1NCCc2cc(Br)c(O)c(c2)Oc2ccc(cc2Br)[C@H](O)CNC(=O)/C(=N/O)Cc2cc(Br)c(O)c(c2)Oc2c(Br)cc(cc2Br)C/C1=N\O [BASTADIN 8] | 7 µg/mL (≈ 6.76 µM) | inactive | > 10 µg/mL | inactive | > 10 µg/mL | inactive | inactive |
| – | – | – | – | – | – | 6 µg/mL (≈ 6.38 µM) | O=C1NCCc2ccc(c(Br)c2)Oc2cc(ccc2O)CCNC(=O)/C(=N/O)Cc2cc(Br)c(O)c(c2)Oc2c(Br)cc(cc2Br)C/C1=N\O [BASTADIN 13] | – | – | – | – | – | – | – |
| 2 µg/mL (≈ 1.93 µM) | 2.3 µg/mL (≈ 2.22 µM) | 6.25 µg | 50 µg | 2.2 µg/mL (≈ 2.13 µM) | 9.1 µg/mL (≈ 8.79 µM) | – | O=C1NCCc2cc(Br)c(O)c(c2)Oc2c(Br)cc(cc2Br)[C@H](O)CNC(=O)/C(=N/O)Cc2cc(Br)c(O)c(c2)Oc2ccc(cc2Br)C/C1=N\O [BASTADIN 12] | 2.1 µg/mL (≈ 2.03 µM) | inactive | 2.1 µg/mL (≈ 2.03 µM) | inactive | 2.4 µg/mL (≈ 2.32 µM) | inactive | inactive |

| Compound | EC50 (OVCAR-3) | EC50 (NCI-H460) | MIC (Staphylococcus aureus) | MIC (Enterococcus faecalis) | EC50 (SK-MEL-5) | EC50 (P388) | MIC (Bacillus subtilis) | EC50 (A498) | Activity (Cryptococcus neoformans) | EC50 (KM-20L2) | Activity (Candida albicans) | GI50 [1] | Activity (Neisseria gonorrhoeae) | Activity (Escherichia coli) |
| --- | --- | --- | --- | --- | --- | --- | --- | --- | --- | --- | --- | --- | --- | --- |
| O=C1NCCc2cc(Br)c(O)c(c2)Oc2ccc(cc2Br)[C@H](O)CNC(=O)/C(=N/O)Cc2cc(Br)c(O)c(c2)Oc2ccc(cc2Br)C/C1=N\O [BASTADIN 10] | 2.9 µg/mL (≈ 3.03 µM) | 3.4 µg/mL (≈ 3.56 µM) | 1.56 µg | 6.25 µg | 3.7 µg/mL (≈ 3.87 µM) | > 10 µg/mL | – | 4.5 µg/mL (≈ 4.71 µM) | inactive | 2 µg/mL (≈ 2.09 µM) | inactive | 3.2 µg/mL (≈ 3.35 µM) | inactive | inactive |
